What was measured:
HiBit-KRAS^G12C [1] = target: T1, HiBit-KRAS^G12C (Homo sapiens, UniProt P01116, G12C); assay: HiBit degradation assay in SW1573 HiBit-KRas^G12C cells; format: cell-based; set-up: expressed in transfected cells; host or cells: SW1573 (clone E6), modified pcDNA3.1 vector, TK promoter; conditions: 24 hours
In short: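 SW1573 cells stably expressing N-terminally HiBit-tagged KRAS G12C, under the TK promoter, were treated 24 h at 37 °C with 10 μM to 20 nM compound in 0.1% or 0.5% DMSO. Residual HiBit luminescence normalised to DMSO and fitted with a 4-parameter model for DC50 and Dmax. Points with ≥50% viability loss (alamar blue) excluded.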

HiBit-KRAS^G12C [2] = target: T1, HiBit-KRAS^G12C; assay: HiBit degradation assay in MiaPaCa-2 HiBit-KRas^G12C cells; format: cell-based; conditions: 24 hours
In short: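 MiaPaCa-2 cells with CRISPR N-terminal HiBit knock-in on one endogenous KRAS^G12C allele, treated 24 hours at 37° C with compound titrated 10 μM to 20 nM (0.1% or 0.5% DMSO). Lytic HiBit luminescence normalized to DMSO, 4-parameter fit giving DC50 and Dmax; points cytotoxic to […] cells by alamar blue excluded.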

[3] = SW1573, SW1573 HiBit-KRas^G12C, 0.5% DMSO, read-out: KRas^G12C-HiBiT (SW1573; 0.5% DMSO) Dmax**
[4] = read-out: KRas^G12C-HiBiT (SW1573; 0.5% DMSO) IC50***, SW1573 HiBit-KRas^G12C, 0.5% DMSO
[5] = MIA PaCa-2, MiaPaCa-2 HiBit-KRas^G12C cells, 0.5% DMSO, maximum degradation, read-out: KRas^G12C-HiBiT (MiaPaCa; 0.5% DMSO) DMax
[6] = read-out: KRas^G12C-HiBiT (MiaPaCa; 0.5% DMSO) IC50, MiaPaCa-2 HiBit-KRas^G12C cells, 0.5% DMSO
[7] = SW1573, SW1573 HiBit-KRas^G12C, 0.1% DMSO, read-out: KRas^G12C-HiBit (SW1573; 0.1% DMSO) Dmax**
[8] = SW1573 HiBit-KRas^G12C, 0.1% DMSO, read-out: KRas^G12C-HIBit (SW1573; 0.1% DMSO) DC50*
[9] = MIA PaCa-2, MiaPaCa-2 HiBit-KRas^G12C cells, 0.1% DMSO, maximum degradation, read-out: KRas^G12C-HiBiT (MiaPaCa; 0.1% DMSO) DMax

T1 sequence (P01116 1-186 isoform P01116-2 G12C limits assumed): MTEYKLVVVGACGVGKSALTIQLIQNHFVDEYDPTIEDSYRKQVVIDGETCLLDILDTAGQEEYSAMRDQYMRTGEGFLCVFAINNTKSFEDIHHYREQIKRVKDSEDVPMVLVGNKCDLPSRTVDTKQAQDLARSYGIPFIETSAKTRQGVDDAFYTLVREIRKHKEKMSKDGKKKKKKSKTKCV

Compound	Dmax (HiBit-KRAS^G12C [1]; [3])	DC50 (HiBit-KRAS^G12C [1]; [4])	Dmax (HiBit-KRAS^G12C [2]; [5])	DC50 (HiBit-KRAS^G12C [2]; [6])	DC50 (HiBit-KRAS^G12C [1]; [8])	other results
C=CC(=O)N1CCN(c2nc(O[C@H](C)CN3CCC(OCCOCC(=O)N[C@H](C(=O)N4C[C@H](O)C[C@H]4C(=O)N[C@@H](C)c4ccc(-c5scnc5C)cc4)C(C)(C)C)CC3)nc3c(F)c(-c4cc(O)cc5ccccc45)c(Cl)cc23)C[C@@H]1CC#N [Compound 33, (2S,4R)-1-[(2S)-2-{2-[2-({1-[(2R)-2-({6-chloro-4-[(3S)-3-(cyanomethyl)-4-(prop-2-enoyl)piperazin-1-yl]-8-fluoro-7-(3-hydroxynaphthalen-1-yl)quinazolin-2-yl}oxy)propyl]piperidin-4-yl}oxy)ethoxy]acetamido}-3,3-dimethylbutanoyl]-4-hydroxy-N-[(1S)-1-[4-(4-methyl-1,3-thiazol-5-yl)phenyl]ethyl]pyrrolidine-2-carboxamide]	35 to 70%	–	35 to 70%	–	100 to 1000 nM	Dmax (HiBit-KRAS^G12C [1]; [7]): 35 to 70%; Dmax (HiBit-KRAS^G12C [2]; [9]): 35 to 70%
C=CC(=O)N1CCN(c2nc(OCCN3CCN(CCOCC(=O)N[C@H](C(=O)N4C[C@H](O)C[C@H]4C(=O)N[C@@H](C)c4ccc(-c5scnc5C)cc4)C(C)(C)C)CC3)nc3c(F)c(-c4cc(O)cc5ccccc45)c(Cl)cc23)CC1 [Compound 51, (2S,4R)-1-[(2S)-2-(2-{2-[4-(2-{[6-chloro-8-fluoro-7-(3-hydroxynaphthalen-1-yl)-4-[4-(prop-2-enoyl)piperazin-1-yl]quinazolin-2-yl]oxy}ethyl)piperazin-1-yl]ethoxy}acetamido)-3,3-dimethylbutanoyl]-4-hydroxy-N-[(1S)-1-[4-(4-methyl-1,3-thiazol-5-yl)phenyl]ethyl]pyrrolidine-2-carboxamide]	–	–	–	–	> 1000 nM	Dmax (HiBit-KRAS^G12C [1]; [7]): < 35%; Dmax (HiBit-KRAS^G12C [2]; [9]): < 35%; DC50 (HiBit-KRAS^G12C [2]; read-out: KRas^G12C-HiBiT (MiaPaCa; 0.1% DMSO) IC50, MiaPaCa-2 HiBit-KRas^G12C cells, 0.1% DMSO): 100 to 1000 nM
C=CC(=O)N1CCN(c2nc(N3CCN(C[C@H]4C[C@H](OCC(=O)N[C@H](C(=O)N5C[C@H](O)C[C@H]5C(=O)N[C@@H](C)c5ccc(-c6scnc6C)cc5)C(C)(C)C)C4)CC3)nc3c(F)c(-c4cc(O)cc5ccccc45)c(Cl)cc23)C[C@@H]1CC#N [Compound 114, (2S,4R)-1-[(2S)-3,3-dimethyl-2-{2-[(1r,3r)-3-[(4-{6-chloro-4-[(3S)-3-(cyanomethyl)-4-(prop-2-enoyl)piperazin-1-yl]-8-fluoro-7-(3-hydroxynaphthalen-1-yl)quinazolin-2-yl}piperazin-1-yl)methyl]cyclobutoxy]acetamido}butanoyl]-4-hydroxy-N-[(1S)-1-[4-(4-methyl-1,3-thiazol-5-yl)phenyl]ethyl]pyrrolidine-2-carboxamide]	35 to 70%	100 to 1000 nM	< 35%	100 to 1000 nM	–	–
C=C(F)C(=O)N1CCN(c2nc(OCCN3CCC(COCC(=O)N[C@H](C(=O)N4C[C@H](O)C[C@H]4C(=O)N[C@@H](C)c4ccc(-c5scnc5C)cc4)C(C)(C)C)CC3)nc3c(F)c(-c4cc(O)cc5ccccc45)c(Cl)cc23)C[C@@H]1CC#N [Compound 15, (2S,4R)-1-[(2S)-2-[2-({1-[2-({6-chloro-4-[(3S)-3-(cyanomethyl)-4-(2-fluoroprop-2-enoyl)piperazin-1-yl]-8-fluoro-7-(3-hydroxynaphthalen-1-yl)quinazolin-2-yl}oxy)ethyl]piperidin-4-yl}methoxy)acetamido]-3,3-dimethylbutanoyl]-4-hydroxy-N-[(1S)-1-[4-(4-methyl-1,3-thiazol-5-yl)phenyl]ethyl]pyrrolidine-2-carboxamide]	–	–	–	–	100 to 1000 nM	Dmax (HiBit-KRAS^G12C [1]; SW1573, read-out: KRas^G12C-HiBit (SW1573; 0.1% DMSO) Dmax**, SW1573 HiBit-KRas^G12C, 0.1% DMSO): > 70%; Dmax (HiBit-KRAS^G12C [2]; MIA PaCa-2, read-out: KRas^G12C-HiBiT (MiaPaCa; 0.1% DMSO) DMax, MiaPaCa-2 HiBit-KRas^G12C cells, 0.1% DMSO, maximum degradation): 35 to 70%
C=CC(=O)N1CCN(c2nc(OCCN3CCC(OCCOc4cc([C@H](C(=O)N5C[C@H](O)C[C@H]5C(=O)N[C@@H](C)c5ccc(-c6scnc6C)cc5)C(C)C)on4)CC3)nc3c(F)c(-c4cc(O)cc5ccccc45)c(Cl)cc23)C[C@@H]1CC#N (atropisomer, axis not shown) [Compound 3, (2S,4R)-1-((R)-2-(3-(2-((1-(2-(((S)-4-((S)-4-acryloyl-3-(cyanomethyl)piperazin-1-yl)-6-chloro-8-fluoro-7-(3-hydroxynaphthalen-1-yl)quinazolin-2-yl)oxy)ethyl)piperidin-4-yl)oxy)ethoxy)isoxazol-5-yl)-3-methylbutanoyl)-4-hydroxy-N-((S)-1-(4-(4-methylthiazol-5-yl)phenyl)ethyl)pyrrolidine-2-carboxamide]	–	–	–	–	< 100 nM	KRas^G12C-HiBit (SW1573; 0.1% DMSO) Dmax** (HiBit-KRAS^G12C [1]; SW1573 HiBit-KRas^G12C, 0.1% DMSO): A (A ≥ 70); KRas^G12C-HiBiT (MiaPaCa; 0.1% DMSO) DMax (HiBit-KRAS^G12C [2]; MiaPaCa-2 HiBit-KRas^G12C cells, 0.1% DMSO, maximum degradation): A (A ≥ 70); KRas^G12C-HiBiT (MiaPaCa; 0.5% DMSO) DMax (HiBit-KRAS^G12C [2]; MiaPaCa-2 HiBit-KRas^G12C cells, 0.5% DMSO, maximum degradation): A (A ≥ 70)

More lines, main results first:

Dmax (HiBit-KRAS^G12C [1]; [3])	DC50 (HiBit-KRAS^G12C [1]; [4])	Dmax (HiBit-KRAS^G12C [2]; [5])	DC50 (HiBit-KRAS^G12C [2]; [6])	Compound	DC50 (HiBit-KRAS^G12C [1]; [8])	other results
35 to 70%	100 to 1000 nM	35 to 70%	100 to 1000 nM	C=CC(=O)N1CCN(c2nc(O[C@H]3CCC[C@@H]3N3CCC(COCC(=O)N[C@H](C(=O)N4C[C@H](O)C[C@H]4C(=O)N[C@@H](C)c4ccc(-c5scnc5C)cc4)C(C)(C)C)CC3)nc3c(F)c(-c4cc(O)cc5ccccc45)c(Cl)cc23)C[C@@H]1CC#N [Compound 127, (2S,4R)-1-[(2S)-2-[2-({1-[(1S,2S)-2-({6-chloro-4-[(3S)-3-(cyanomethyl)-4-(prop-2-enoyl)piperazin-1-yl]-8-fluoro-7-(3-hydroxynaphthalen-1-yl)quinazolin-2-yl}oxy)cyclopentyl]piperidin-4-yl}methoxy)acetamido]-3,3-dimethylbutanoyl]-4-hydroxy-N-[(1S)-1-[4-(4-methyl-1,3-thiazol-5-yl)phenyl]ethyl]pyrrolidine-2-carboxamide]	–	–
35 to 70%	< 100 nM	> 70%	< 100 nM	C=C(F)C(=O)N1CCN(c2nc(OCCN3CCC(F)(COc4cc([C@H](C(=O)N5C[C@H](O)C[C@H]5C(=O)N[C@@H](C)c5ccc(-c6ccnn6C)cc5)C(C)C)on4)CC3)nc3c(F)c(-c4cc(O)cc5ccccc45)c(Cl)cc23)C[C@@H]1CC#N (atropisomer, axis not shown) [Compound 117, (2S,4R)-1-[(2R)-2-[3-({1-[2-({6-chloro-4-[(3S)-3-(cyanomethyl)-4-(2-fluoroprop-2-enoyl)piperazin-1-yl]-8-fluoro-7-(3-hydroxynaphthalen-1-yl)quinazolin-2-yl}oxy)ethyl]-4-fluoropiperidin-4-yl}methoxy)-1,2-oxazol-5-yl]-3-methylbutanoyl]-4-hydroxy-N-[(1S)-1-[4-(1-methyl-1H-pyrazol-5-yl)phenyl]ethyl]pyrrolidine-2-carboxamide]	–	–
> 70%	< 100 nM	> 70%	100 to 1000 nM	C=CC(=O)N1CCN(c2nc(OCCN3CCC4(CC3)CN(c3cc([C@H](C(=O)N5C[C@H](O)C[C@H]5C(=O)N[C@@H](C)c5ccc(-c6ccnn6C)cc5)C(C)C)on3)C4)nc3c(F)c(-c4cc(O)cc5ccccc45)c(Cl)cc23)C[C@@H]1CC#N (atropisomer, axis not shown) [Compound 116, (2S,4R)-1-[(2R)-2-(3-{7-[2-({6-chloro-4-[(3S)-3-(cyanomethyl)-4-(prop-2-enoyl)piperazin-1-yl]-8-fluoro-7-(3-hydroxynaphthalen-1-yl)quinazolin-2-yl}oxy)ethyl]-2,7-diazaspiro[3.5]nonan-2-yl}-1,2-oxazol-5-yl)-3-methylbutanoyl]-4-hydroxy-N-[(1S)-1-[4-(1-methyl-1H-pyrazol-5-yl)phenyl]ethyl]pyrrolidine-2-carboxamide]	–	–
